According to ChEMBL document CHEMBL1201862, “PubChem BioAssay data set” (2004):
Calls of active or inactive are those of the source.

Columns and labels:
[1] = biological target: G-protein coupled receptor 55 (Homo sapiens, UniProt Q9Y2T6); assay: SAR Analysis of Selective Antagonists of GPR55 using an Image-Based Assay - Set 4. [Related pubchem assays (depositor defined):AID2013, AID2026]; type: functional;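 further: antagonism of response to 5 µM lysophosphatidylinositol agonist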
[2] = biological target: T1, G-protein coupled receptor 35 (Homo sapiens, UniProt Q9HC97); assay: SAR analysis of Agonists of the GPR35 Receptor using an Image-Based Assay - Set 4. [Related pubchem assays (depositor defined):AID2013, AID2026]; type: functional
Cannabinoid receptor 1 [3] = biological target: T2, Cannabinoid receptor 1 (Homo sapiens, UniProt P21554); assay: SAR analysis of antagonists of the Cannabinoid Receptor 1 using an Image-Based Assay - Set 4. [Related pubchem assays (depositor defined):AID2013, AID2026]; type: functional
Cannabinoid receptor 2 [4] = biological target: T3, Cannabinoid receptor 2 (Homo sapiens, UniProt P34972); assay: SAR analysis of agonists of the Cannabinoid Receptor 2 using an Image-Based Assay - Set 3. [Related pubchem assays (depositor defined):AID2013, AID2026]; type: functional
Cannabinoid receptor 2 [5] = biological target: T3, Cannabinoid receptor 2; assay: SAR analysis of antagonists of the Cannabinoid Receptor 2 using an Image-Based Assay - Set 3. [Related pubchem assays (depositor defined):AID2013, AID2026]; type: functional
[6] = biological target: T1, G-protein coupled receptor 35; assay: SAR analysis of Antagonists of the GPR35 Receptor using an Image-Based Assay - Set 6. [Related pubchem assays (depositor defined):AID2013, AID2026]; type: functional
Cannabinoid receptor 1 [7] = biological target: T2, Cannabinoid receptor 1; assay: SAR analysis of agonists of the Cannabinoid Receptor 1 using an Image-Based Assay - Set 4. [Related pubchem assays (depositor defined):AID2013, AID2026]; type: functional
Hexokinase-1 = biological target: T4, Hexokinase-1 (Homo sapiens, UniProt P19367); assay: HK1 enzyme activation by HKDC1 hits – biochemical, selectivity assay for HKDC1 activator project, dose response (AID 504762); type: functional
T4 sequence (P19367 whole entry): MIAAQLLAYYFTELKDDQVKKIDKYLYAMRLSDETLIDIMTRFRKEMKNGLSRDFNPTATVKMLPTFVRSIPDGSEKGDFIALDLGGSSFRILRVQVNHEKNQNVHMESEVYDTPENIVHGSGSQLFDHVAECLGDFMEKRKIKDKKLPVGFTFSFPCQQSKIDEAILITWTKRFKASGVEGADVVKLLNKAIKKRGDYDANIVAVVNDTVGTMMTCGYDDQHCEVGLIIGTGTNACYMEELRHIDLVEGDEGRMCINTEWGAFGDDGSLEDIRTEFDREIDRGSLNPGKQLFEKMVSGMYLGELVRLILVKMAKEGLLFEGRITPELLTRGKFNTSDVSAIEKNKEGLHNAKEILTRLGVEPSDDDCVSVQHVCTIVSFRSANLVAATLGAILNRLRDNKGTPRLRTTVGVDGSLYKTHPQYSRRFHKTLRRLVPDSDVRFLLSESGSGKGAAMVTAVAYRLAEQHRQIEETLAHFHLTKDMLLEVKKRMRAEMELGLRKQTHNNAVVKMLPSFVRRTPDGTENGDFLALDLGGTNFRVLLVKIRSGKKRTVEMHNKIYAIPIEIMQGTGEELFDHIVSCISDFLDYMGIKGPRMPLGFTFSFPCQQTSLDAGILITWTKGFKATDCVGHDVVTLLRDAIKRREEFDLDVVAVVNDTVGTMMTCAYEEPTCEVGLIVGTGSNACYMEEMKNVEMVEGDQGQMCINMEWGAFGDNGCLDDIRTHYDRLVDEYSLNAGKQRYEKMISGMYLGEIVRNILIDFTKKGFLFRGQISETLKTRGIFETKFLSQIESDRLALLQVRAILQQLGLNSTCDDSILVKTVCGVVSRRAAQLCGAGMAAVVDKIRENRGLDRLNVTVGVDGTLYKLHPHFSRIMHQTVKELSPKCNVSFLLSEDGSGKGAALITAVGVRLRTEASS

Hexokinase HKDC1 = biological target: T5, Hexokinase HKDC1 (Homo sapiens, UniProt Q2TB90); assay: activation of HKDC1 glucose phosphorylation – biochemical, W721R variant, dose response (AID 504730); type: functional
T5 sequence (Q2TB90 whole entry): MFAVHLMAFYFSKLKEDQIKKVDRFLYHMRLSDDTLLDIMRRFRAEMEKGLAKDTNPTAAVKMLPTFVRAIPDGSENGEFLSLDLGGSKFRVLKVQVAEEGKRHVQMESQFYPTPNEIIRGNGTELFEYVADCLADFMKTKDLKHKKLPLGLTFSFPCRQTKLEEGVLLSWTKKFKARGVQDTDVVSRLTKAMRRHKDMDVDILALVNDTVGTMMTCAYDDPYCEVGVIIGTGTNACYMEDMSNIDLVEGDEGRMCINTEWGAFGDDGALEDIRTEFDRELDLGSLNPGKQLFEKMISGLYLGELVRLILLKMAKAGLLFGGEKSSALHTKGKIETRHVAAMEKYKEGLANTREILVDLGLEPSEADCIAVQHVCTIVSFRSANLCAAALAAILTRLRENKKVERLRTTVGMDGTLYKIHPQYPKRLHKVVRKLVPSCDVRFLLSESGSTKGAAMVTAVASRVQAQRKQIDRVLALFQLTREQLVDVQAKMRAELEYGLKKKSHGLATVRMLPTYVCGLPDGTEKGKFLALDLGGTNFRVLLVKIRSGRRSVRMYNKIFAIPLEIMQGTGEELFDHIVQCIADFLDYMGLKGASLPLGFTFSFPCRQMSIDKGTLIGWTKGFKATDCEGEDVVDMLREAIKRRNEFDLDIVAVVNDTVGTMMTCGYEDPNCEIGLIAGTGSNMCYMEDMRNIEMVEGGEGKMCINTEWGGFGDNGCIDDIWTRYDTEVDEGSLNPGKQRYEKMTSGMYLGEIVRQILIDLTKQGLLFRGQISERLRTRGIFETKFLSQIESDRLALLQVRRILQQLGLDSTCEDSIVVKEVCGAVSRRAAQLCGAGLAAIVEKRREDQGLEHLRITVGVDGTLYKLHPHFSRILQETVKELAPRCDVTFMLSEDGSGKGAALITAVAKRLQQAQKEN

[8] = biological target: T6, Voltage-gated N-type calcium channel alpha-1B subunit/Amyloid beta A4 precursor protein-binding family A member 1 (Homo sapiens, UniProt Q00975+Q02410); type: protein assay
[9] = biological target: E3 ubiquitin-protein ligase XIAP (Homo sapiens, UniProt P98170); assay: Counter Screen using XIAP-Bir3 for Chemical Antagonists of Bir1/2 domains of IAP-family anti-apoptotic proteins. [Related pubchem assays (depositor defined):AID1018, AID1449, AID1514, AID1638, AID1749, AID1750, AID488957, AID488963]
[10] = biological target: T6, Voltage-gated N-type calcium channel alpha-1B subunit/Amyloid beta A4 precursor protein-binding family A member 1; type: protein assay; remark: listed apart in the source

T1 sequence (Q9HC97 whole entry): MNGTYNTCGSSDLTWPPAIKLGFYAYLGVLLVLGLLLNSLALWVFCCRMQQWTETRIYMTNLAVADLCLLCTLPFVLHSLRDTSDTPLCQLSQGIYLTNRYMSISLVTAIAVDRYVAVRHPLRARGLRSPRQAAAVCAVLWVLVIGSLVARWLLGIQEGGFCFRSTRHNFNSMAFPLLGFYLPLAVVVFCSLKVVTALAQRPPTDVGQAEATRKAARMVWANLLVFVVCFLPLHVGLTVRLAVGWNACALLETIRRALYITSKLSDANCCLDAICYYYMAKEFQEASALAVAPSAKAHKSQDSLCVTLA
T2 sequence (P21554 whole entry): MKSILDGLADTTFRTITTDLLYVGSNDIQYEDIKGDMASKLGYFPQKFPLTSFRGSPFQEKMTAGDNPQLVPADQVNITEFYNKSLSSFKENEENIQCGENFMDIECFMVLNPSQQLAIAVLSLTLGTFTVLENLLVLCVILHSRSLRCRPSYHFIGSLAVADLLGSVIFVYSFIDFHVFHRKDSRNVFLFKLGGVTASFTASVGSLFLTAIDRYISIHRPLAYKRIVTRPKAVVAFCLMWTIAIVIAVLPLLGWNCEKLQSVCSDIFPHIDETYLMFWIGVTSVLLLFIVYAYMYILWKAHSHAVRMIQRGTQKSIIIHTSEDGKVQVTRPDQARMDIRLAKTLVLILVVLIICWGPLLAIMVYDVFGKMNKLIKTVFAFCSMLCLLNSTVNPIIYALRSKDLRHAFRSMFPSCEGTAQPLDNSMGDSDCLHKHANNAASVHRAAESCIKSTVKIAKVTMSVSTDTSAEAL
T3 sequence (P34972 whole entry): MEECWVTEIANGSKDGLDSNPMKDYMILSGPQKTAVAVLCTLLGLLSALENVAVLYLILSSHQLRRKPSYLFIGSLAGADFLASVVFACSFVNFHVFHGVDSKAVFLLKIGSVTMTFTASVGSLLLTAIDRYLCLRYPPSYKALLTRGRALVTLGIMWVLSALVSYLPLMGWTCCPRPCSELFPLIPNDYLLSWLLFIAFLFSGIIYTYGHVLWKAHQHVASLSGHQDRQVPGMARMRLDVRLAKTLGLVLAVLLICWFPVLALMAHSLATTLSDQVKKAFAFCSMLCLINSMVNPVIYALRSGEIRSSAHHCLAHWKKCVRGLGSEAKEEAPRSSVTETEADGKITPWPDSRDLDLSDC
T6 sequence (Q00975 whole entry): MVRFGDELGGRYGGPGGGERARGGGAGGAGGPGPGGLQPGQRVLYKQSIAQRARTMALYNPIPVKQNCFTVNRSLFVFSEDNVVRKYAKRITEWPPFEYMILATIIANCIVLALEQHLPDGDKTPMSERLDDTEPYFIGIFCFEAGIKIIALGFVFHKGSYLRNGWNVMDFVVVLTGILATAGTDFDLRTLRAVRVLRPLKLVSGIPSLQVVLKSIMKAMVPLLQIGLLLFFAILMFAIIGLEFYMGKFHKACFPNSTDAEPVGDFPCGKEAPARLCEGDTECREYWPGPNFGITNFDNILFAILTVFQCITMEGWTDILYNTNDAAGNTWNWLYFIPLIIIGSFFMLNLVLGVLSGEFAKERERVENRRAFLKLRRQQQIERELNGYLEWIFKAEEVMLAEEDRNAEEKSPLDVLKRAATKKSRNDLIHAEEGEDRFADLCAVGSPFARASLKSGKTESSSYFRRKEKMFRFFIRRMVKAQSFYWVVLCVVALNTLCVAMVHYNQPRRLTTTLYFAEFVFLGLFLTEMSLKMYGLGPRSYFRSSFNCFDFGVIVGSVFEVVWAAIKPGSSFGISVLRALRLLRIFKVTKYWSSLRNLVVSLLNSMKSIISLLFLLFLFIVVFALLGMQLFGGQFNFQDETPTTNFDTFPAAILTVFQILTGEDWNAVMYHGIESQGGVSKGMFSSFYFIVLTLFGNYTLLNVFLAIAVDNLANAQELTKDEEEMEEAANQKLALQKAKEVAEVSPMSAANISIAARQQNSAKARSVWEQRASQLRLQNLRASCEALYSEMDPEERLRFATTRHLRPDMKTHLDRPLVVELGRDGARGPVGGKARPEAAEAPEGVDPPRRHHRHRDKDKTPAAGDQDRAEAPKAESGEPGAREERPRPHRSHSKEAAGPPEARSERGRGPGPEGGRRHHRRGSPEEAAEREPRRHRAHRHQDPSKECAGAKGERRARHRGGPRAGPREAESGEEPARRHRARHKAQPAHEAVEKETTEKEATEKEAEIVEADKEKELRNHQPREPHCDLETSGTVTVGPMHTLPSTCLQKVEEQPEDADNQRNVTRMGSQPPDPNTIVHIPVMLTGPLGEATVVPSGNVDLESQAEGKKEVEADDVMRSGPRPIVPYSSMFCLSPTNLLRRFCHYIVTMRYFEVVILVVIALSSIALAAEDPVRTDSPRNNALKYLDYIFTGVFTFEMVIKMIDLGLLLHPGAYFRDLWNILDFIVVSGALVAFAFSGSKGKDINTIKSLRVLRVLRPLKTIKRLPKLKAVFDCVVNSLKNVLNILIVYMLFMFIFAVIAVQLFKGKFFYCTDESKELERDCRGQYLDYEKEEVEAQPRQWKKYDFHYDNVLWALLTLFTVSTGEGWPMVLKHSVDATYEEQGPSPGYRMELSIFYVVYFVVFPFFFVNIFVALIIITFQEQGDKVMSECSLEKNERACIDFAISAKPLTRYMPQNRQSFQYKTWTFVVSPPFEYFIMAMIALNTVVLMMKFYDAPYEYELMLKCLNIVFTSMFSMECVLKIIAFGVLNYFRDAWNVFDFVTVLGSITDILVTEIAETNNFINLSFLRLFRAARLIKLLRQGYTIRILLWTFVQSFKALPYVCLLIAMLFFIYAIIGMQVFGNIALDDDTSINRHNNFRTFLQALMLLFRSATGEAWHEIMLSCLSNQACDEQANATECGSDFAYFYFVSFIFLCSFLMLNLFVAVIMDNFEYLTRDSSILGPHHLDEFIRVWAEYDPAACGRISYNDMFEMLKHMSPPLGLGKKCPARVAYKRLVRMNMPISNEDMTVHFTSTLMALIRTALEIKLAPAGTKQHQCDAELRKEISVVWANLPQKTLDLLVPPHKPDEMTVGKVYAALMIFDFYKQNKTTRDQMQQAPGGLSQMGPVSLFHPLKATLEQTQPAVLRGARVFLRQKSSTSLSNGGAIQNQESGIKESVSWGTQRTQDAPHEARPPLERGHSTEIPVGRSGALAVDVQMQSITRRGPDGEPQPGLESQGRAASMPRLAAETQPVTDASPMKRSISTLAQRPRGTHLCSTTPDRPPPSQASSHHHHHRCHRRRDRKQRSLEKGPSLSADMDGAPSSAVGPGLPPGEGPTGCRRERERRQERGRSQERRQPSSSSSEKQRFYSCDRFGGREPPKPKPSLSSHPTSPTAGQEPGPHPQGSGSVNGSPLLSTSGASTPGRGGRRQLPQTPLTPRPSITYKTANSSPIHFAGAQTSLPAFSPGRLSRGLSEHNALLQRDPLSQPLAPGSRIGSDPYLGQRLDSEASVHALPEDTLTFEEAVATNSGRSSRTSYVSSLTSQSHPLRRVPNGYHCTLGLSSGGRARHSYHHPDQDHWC
T6 sequence (Q02410 whole entry): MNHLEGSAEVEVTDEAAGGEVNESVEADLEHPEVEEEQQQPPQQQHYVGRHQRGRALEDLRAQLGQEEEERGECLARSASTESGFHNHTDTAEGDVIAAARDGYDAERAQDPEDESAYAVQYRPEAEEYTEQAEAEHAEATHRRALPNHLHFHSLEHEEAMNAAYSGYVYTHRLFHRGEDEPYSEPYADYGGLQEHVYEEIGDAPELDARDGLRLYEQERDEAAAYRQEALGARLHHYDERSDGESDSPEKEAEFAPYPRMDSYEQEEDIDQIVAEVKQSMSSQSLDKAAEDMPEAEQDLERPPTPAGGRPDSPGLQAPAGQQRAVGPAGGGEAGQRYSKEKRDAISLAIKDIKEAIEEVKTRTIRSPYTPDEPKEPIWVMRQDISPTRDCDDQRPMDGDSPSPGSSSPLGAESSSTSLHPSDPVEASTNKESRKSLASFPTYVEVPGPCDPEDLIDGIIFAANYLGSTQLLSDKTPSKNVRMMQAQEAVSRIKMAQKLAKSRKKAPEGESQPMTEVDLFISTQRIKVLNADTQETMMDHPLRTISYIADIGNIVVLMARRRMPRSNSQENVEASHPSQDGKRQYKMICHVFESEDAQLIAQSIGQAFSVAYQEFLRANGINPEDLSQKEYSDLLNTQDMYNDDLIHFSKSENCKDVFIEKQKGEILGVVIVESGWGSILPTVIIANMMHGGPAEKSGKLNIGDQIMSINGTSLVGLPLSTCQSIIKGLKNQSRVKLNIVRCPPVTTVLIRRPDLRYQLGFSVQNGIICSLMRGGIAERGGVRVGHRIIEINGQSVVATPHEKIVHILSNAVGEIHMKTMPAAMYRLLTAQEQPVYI
Chain of G-protein coupled receptor 55 (Q9Y2T6 whole entry): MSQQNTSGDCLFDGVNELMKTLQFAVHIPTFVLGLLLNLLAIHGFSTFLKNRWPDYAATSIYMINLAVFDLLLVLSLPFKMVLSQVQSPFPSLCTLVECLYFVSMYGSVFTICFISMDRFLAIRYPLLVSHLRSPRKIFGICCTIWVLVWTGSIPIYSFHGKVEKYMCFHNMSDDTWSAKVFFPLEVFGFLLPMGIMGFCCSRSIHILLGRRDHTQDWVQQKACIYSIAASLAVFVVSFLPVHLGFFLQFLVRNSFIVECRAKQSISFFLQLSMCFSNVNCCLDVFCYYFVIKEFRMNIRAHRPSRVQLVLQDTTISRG

IC50 [1]	EC50 [2]	IC50 (Cannabinoid receptor 1 [3])	EC50 (Cannabinoid receptor 2 [4])	IC50 (Cannabinoid receptor 2 [5])	IC50 [6]	EC50 (Cannabinoid receptor 1 [7])	EC50 (Hexokinase-1)	EC50 (Hexokinase HKDC1)	IC50 [8]	IC50 [9]	IC50 [10]	SMILES
4.63 µM (active)	> 32 µM (inactive)	18.8 µM (inactive)	> 32 µM (inactive)	> 32 µM (inactive)	> 32 µM (inactive)	> 32 µM (inactive)						Cc1noc(NS(=O)(=O)c2ccc(NC(=O)c3cc(-c4ccccc4Cl)nc4ccccc34)cc2)c1C
							21.7 µM (inactive)	34.1 µM (inactive)				Cc1ccc2oc(=O)c3cnn(CC(=O)N4CCCCCC4)c3c2c1
									> 50 µM (inactive)	> 20 µM (inactive)	7.16 µM (active)	O=C(Nc1ccc(S(=O)(=O)N2CCOCC2)cc1)c1ccc(O)nc1
13.1 µM (inactive)	> 32 µM (inactive)	2.22 µM (active)	> 32 µM (inactive)	> 13.1 µM (inactive)	> 32 µM (inactive)	> 32 µM (inactive)						Cc1nc(N2CCN(C(=O)COc3ccccc3C)CC2)c2c3c(sc2n1)CCCC3
